Measured values taken from patent US6248739A, “Quinolinecarboxamides as antiviral agents” (Pharmacia & Upjohn Company, priority 1999, dated 2001).

What follows are molecules tested against T1, HCMV polymerase (Human cytomegalovirus, UniProt P08546) (assay: biochemical). Details: not given.
T1 construct: made in house; host or cells: recombinant baculovirus-infected SF-9 insect cells
Protocol: The HCMV polymerase assay is performed using a scintillation proximity assay (SPA) as described in several references, such as N. D. Cook, et al., Pharmaceutical Manufacturing International, pages 49-53 (1992); K. Takeuchi, Laboratory Practice, September issue (1992); U.S. Pat. No. 4,568,649 (1986); which are incorporated by reference herein. Reactions are performed in 96-well plates. The assay is conducted in 100 μl volume with 5.4 mM HEPES (pH 7.5), 11.7 mM KCl, 4.5 mM MgCl2, 0.36 mg/ml BSA, and 90 nM ^3 H-dTTP. Assays are run with and without CHAPS, (3-[(3-Cholamidopropyl)dimethylammonio]-1-propane-sulfonate) at a final concentration of 2 mM. HCMV polymerase is diluted in enzyme dilution buffer containing 50% glycerol, 250 mM NaCl, 10 mM HEPES (pH 7.5), 100 μg/ml BSA, and 0.01% sodium azide. The HCMV polymerase, which is expressed in recombinant baculovirus-infected SF-9 cells and purified according to literature procedures, is added at 10% (or 10 μl) of the final reaction volume, i.e., 100 μl. Compounds are diluted in 50% DMSO and 10 μl are added to each well. Control wells contain an equivalent concentration of DMSO. Unless noted otherwise, reactions are initiated via the addition of 6 nM biotinylated poly(dA)-oligo(dT) template/primer to reaction mixtures containing the enzyme, substrate, and compounds of interest. Plates are incubated in a 25 C. or 37 C. H2 O bath and terminated via the addition of 40 μl/reaction of 0.5 M EDTA (pH 8) per well. Reactions are terminated within the time-frame during which substrate incorporation is linear and varied depending upon the enzyme and conditions used, i.e., 30 min. for HCMV polymerase. Ten μl of streptavidin-SPA beads (20 mg/ml in PBS/10% glycerol) are added following termination of the reaction. Plates are incubated 10 min. at 37 C., then equilibrated to room temperature, and counted on a Packard Topcount. Linear regressions are performed and IC50 's are calculated using computer software.
A modified version of the above HCMV polymerase assay is performed as described above, but with the following changes: Compounds are diluted in 100% DMSO until final dilution into assay buffer. In the previous assay, compounds are diluted in 50% DMSO. 4.5 mM dithiotherotol (DTT) is added to the polymerase buffer.

T1 sequence (P08546 whole entry): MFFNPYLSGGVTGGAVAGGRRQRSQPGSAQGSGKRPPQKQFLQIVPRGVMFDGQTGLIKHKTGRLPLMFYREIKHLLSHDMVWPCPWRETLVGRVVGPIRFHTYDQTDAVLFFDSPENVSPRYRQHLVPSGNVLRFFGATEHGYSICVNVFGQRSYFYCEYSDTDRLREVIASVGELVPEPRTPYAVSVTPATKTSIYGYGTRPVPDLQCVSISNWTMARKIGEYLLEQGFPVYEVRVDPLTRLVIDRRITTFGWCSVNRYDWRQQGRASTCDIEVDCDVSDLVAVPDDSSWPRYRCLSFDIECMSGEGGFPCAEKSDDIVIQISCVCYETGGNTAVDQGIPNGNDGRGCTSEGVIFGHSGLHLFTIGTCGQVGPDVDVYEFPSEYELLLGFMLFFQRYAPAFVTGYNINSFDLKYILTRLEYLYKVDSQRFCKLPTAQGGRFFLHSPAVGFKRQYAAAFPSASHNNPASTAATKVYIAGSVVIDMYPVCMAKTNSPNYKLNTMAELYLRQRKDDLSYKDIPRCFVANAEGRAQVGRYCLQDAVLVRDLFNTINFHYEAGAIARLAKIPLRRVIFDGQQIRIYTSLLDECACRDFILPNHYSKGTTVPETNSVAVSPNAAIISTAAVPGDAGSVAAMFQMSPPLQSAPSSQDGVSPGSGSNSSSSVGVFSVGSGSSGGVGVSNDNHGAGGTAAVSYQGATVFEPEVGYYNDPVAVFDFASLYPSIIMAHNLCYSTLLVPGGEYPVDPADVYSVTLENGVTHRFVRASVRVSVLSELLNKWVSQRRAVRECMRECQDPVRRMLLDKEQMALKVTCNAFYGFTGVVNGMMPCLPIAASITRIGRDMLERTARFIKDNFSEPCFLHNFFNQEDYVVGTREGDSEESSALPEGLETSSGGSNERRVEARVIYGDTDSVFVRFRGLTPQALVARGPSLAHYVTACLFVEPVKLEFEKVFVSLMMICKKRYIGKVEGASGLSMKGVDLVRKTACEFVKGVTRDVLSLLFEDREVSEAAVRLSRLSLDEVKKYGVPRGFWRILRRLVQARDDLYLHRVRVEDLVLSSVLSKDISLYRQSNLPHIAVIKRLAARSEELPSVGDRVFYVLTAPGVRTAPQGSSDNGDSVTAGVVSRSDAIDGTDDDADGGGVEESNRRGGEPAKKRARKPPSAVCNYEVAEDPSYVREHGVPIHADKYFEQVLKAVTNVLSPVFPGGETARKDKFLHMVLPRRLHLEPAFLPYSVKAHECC

Compound	IC50 [µM]
O=C(NCc1ccc(Cl)cc1)c1cn(CCN2CCOCC2)c2ccc(C#CCO)cc2c1=O [Example 19, N-(4-Chlorobenzyl)-6-(3-hydroxy-1-propynyl)-1-[2-(4-morpholinyl)ethyl]-4-oxo-1,4-dihydro-3-quinolinecarboxamide]	1.8

Same assay, conditions: HCMV polymerase; SPA; modified assay: compounds in 100% DMSO, 4.5 mM DTT

IC50 [µM]	Compound
3.8	CN(C)CCCn1cc(C(=O)NCc2ccc(Cl)cc2)c(=O)c2cc(C#CCO)ccc21 [Example 20, N-(4-Chlorobenzyl)-1-[3-(dimethylamino)propyl]-6-(3-hydroxy-1-propynyl)-4-oxo-1,4-dihydro-3-quinolinecarboxamide]
1.4	C=Cn1cc(C(=O)NCc2ccc(Cl)cc2)c(=O)c2cc(C#CCO)ccc21 [Example 21, N-(4-Chlorobenzyl)-6-(3-hydroxy-1-propynyl)-4-oxo-1-vinyl-1,4-dihydro-3-quinolinecarboxamide]
0.81	Cn1cc(C(=O)NCc2ccc(Cl)cc2)c(=O)c2cc(/C=C/CO)ccc21 [Example 22, N-(4-chlorobenzyl)-6-[(E)-3-hydroxy-1-propenyl]-1-methyl-4-oxo-1,4-dihydro-3-quinolinecarboxamide]
0.62	Cn1cc(C(=O)NCc2ccc(Cl)cc2)c(=O)c2cc(/C=C\CO)ccc21 [Example 23, N-(4-chlorobenzyl)-6-[(Z)-3-hydroxy-1-propenyl]-1-methyl-4-oxo-1,4-dihydro-3-quinolinecarboxamide]
23.6	CCN(CCO)c1ccc2c(c1)c(=O)c(C(=O)NCc1ccc(Cl)cc1)cn2C [Example 24, N-(4-Chlorobenzyl)-6-[ethyl(2-hydroxyethyl)amino]-1-methyl-4-oxo-1,4-dihydro-3-quinolinecarboxamide]
0.61	O=C(NCc1ccc(Cl)cc1)c1cn(C2CC2)c2ccc(CN3CCOCC3)cc2c1=O [Example 27, N-(4-Chlorobenzyl)-1-cyclopropyl-6-(4-morpholinylmethyl)-4-oxo-1,4-dihydro-3-quinolinecarboxamide]
1.8	CC(C)(C)OC(=O)Cn1cc(C(=O)NCc2ccc(Cl)cc2)c(=O)c2cc(C#CCO)ccc21 [Example 28, tert-Butyl 2-[3-{[(4-chlorobenzyl)amino]carbonyl}-6-(3-hydroxy-1-propynyl)-4-oxo-1(4H)-quinolinyl]acetate]
1	O=C(O)Cn1cc(C(=O)NCc2ccc(Cl)cc2)c(=O)c2cc(C#CCO)ccc21 [Example 29, 2-[3-{[(4-Chlorobenzyl)amino]carbonyl}-6-(3-hydroxy-1-propynyl)-4-oxo-1(4H)-quinolinyl]acetic acid]
0.95	O=C(NCc1ccc(Cl)cc1)c1cn(CCO)c2ccc(C#CCO)cc2c1=O [Example 30, N-(4-Chlorobenzyl)-1-(2-hydroxyethyl)-6-(3-hydroxy-1-propynyl)-4-oxo-1,4-dihydro-3-quinolinecarboxamide]
27.2	Cn1cc(C(=O)NCc2ccc(Cl)cc2)c(=O)c2cc(CCCOP(=O)(OC(C)(C)C)OC(C)(C)C)ccc21 [Example 32, Di(tert-butyl) 3-(3-{[(4-chlorobenzyl)amino]carbonyl}-1-methyl-4-oxo-1,4-dihydro-6-quinolinyl)propyl phosphate]
3.7	Cn1cc(C(=O)NCc2ccc(Cl)cc2)c(=O)c2cc(CCCOP(=O)(O)O)ccc21 [Example 33, 3-(3-{[(4-Chlorobenzyl)amino]carbonyl}-1-methyl-4-oxo-1,4-dihydro-6-quinolinyl)propyl dihydrogen phosphate]
> 20	CC(C)(C)OP(=O)(OCCCc1ccc2c(c1)c(=O)c(C(=O)NCc1ccc(Cl)cc1)cn2C1CC1)OC(C)(C)C [Example 34, Di(tert-butyl) 3-(3-{[(4-chlorobenzyl)amino]carbonyl}-1-cyclopropyl-4-oxo-1,4-dihydro-6-quinolinyl)propyl phosphate]
> 20	CN(CCS(=O)(=O)O)C(=O)CCCCCCC(=O)OCC#Cc1ccc2c(c1)c(=O)c(C(=O)NCc1ccc(Cl)cc1)cn2C [Example 37, Sodium 2-[(8-{[3-(3-{[(^4-chlorobenzyl)amino]carbonyl}-1-methyl-4-oxo-1,4-dihydro-6-quinolinyl)-2-propynyl]oxy}-8-oxooctanoyl)(methyl)amino]-1-ethanesulfonate]
2.2	CC(C)(C)n1cc(C(=O)NCc2ccc(Cl)cc2)c(=O)c2cc(C#CCO)ccc21 [Example 39]
1.2	COCCOCCn1cc(C(=O)NCc2ccc(Cl)cc2)c(=O)c2cc(C#CCO)ccc21 [Example 42, N-(4-Chlorobenzyl)-6-(3-hydroxy-1-propynyl)-1-[2-(2-methoxyethoxy)ethyl]-4-oxo-1,4-dihydro-3-quinolinecarboxamide]
9.4	Cn1cc(C(=O)NCc2ccc(C#N)cc2)c(=O)c2cc(C#CCO)ccc21 [Example 43, N-(4-Cyanobenzyl)-6-(3-hydroxy-1-propynyl)-1-methyl-4-oxo-1,4-dihydro-3-quinolinecarboxamide]
9.3	Cn1cc(C(=O)NCc2ccc(Cl)cc2)c(=O)c2cc(CN(CCO)CCO)ccc21 [Example 44, 6-((Bis(2-hydroxyethyl)amino)methyl)-N-(4-chlorobenzyl)-1-1-methyl-4-oxo-1,4-dihydro-3-quinolinecarboxamide.]
11.9	CN(CCO)Cc1ccc2c(c1)c(=O)c(C(=O)NCc1ccc(Cl)cc1)cn2C [Example 45, N-(4-Chlorobenzyl)-6-(((2-hydroxyethyl)(methyl)amino)-methyl)-1-methyl-4-oxo-1,4-dihydro-3-quinolinecarboxamide]
5.5	Cn1cc(C(=O)NCc2ccc(Cl)cc2)c(=O)c2cc(CN3CCCOCC3)ccc21 [Example 46, N-(4-Chlorobenzyl)-1-methyl-6-(1,4-oxazepan-4-ylmethyl)-4-oxo-1,4-dihydro-3-quinolinecarboxamide]
7.2	Cn1cc(C(=O)NCc2ccc(Cl)cc2)c(=O)c2cc(CN3CCCSCC3)ccc21 [Example 47, N-(4-Chlorobenzyl)-1-methyl-4-oxo-6-(1,4-thiazepan-4-ylmethyl)-1,4-dihydro-3-quinolinecarboxamide]
13.6	Cn1cc(C(=O)NCc2ccc(Cl)cc2)c(=O)c2cc(CN3C[C@@H]4C[C@H]3CO4)ccc21 [Example 48, N-(4-Chlorobenzyl)-1-methyl-6-(2-oxa-5-azabicyclo(2.2. 1]-hept-5-ylmethyl)-4-oxo-1,4-dihydro-3-quinolinecarboxamide]
2.2	Cn1cc(C(=O)NCc2ccc(Cl)cc2)c(=O)c2cc(CN3CCOc4ccccc43)ccc21 [Example 49, N-(4-Chlorobenzyl)-6-(2,3-dihydro-4H-1,4-benzoxazin-4-ylmethyl)-1-methyl-4-oxo-1,4-dihydro-3-quinolinecarboxamide]
11.5	Cn1cc(C(=O)NCc2ccc(Cl)cc2)c(=O)c2cc(CN(CCO)Cc3ccccc3)ccc21 [Example 50, 6-((Benzyl(2-hydroxyethyl)amino)methyl)-N-(4-chlorobenzyl)-1-methyl-4-oxo-1,4-dihydro-3-quinolinecarboxamide]
1.3	Cn1cc(C(=O)NCc2ccc(Cl)cc2)c(=O)c2cc(CN=[N+]=[N-])ccc21 [Example 51, 6-(Azidomethyl)-N-(4-chlorobenzyl)-1-methyl-4-oxo-1,4-dihydro-3-quinolinecarboxamide]
9.6	Cn1cc(C(=O)NCc2ccc(Cl)cc2)c(=O)c2cc(CN3CCC(F)(F)CC3)ccc21 [Example 52, N-(4-chlorobenzyl)-6-((4,4-difluoro-1-piperidinyl)methyl)-1-methyl-4-oxo-1,4-dihydro-3-quinolinecarboxamide]
11.7	Cn1cc(C(=O)NCc2ccc(Cl)cc2)c(=O)c2cc(CN3CC=C(F)CC3)ccc21 [Example 53, N-(4-Chlorobenzyl)-6-((4-fluoro-3,6-dihydro-1(2H)-pyridinyl)methyl)-1-methyl-4-oxo-1,4-dihydro-3-quinolinecarboxamide]
3.3	C=Cc1ccc2c(c1)c(=O)c(C(=O)NCc1ccc(Cl)cc1)cn2C [Example 54, N-(4-Chlorobenzyl)-1-methyl-4-oxo-6-vinyl-1,4-dihydro-3-quinolinecarboxamide]
3	COCCOCCOCCn1cc(C(=O)NCc2ccc(Cl)cc2)c(=O)c2cc(CN3CCOCC3)ccc21 [Example 56, N-(4-Chlorobenzyl)-1-{2-[2-(2-methoxyethoxy)ethoxy]ethyl}-6-(4-morpholinylmethyl)-4-oxo-1,4-dihydro-3-quinolinecarboxamide]
1.2	O=C(NCc1ccc(Cl)cc1)c1cn(CCOCCO)c2ccc(CN3CCOCC3)cc2c1=O [Example 57, N-(4-Chlorobenzyl)-1-[2-(2-hydroxyethoxy)ethyl]-6-(4-morpholinylmethyl)-4-oxo-1,4-dihydro-3-quinolinecarboxamide]
